Assay results reported in patent US20190290650A1, “FORMULATIONS/COMPOSITIONS COMPRISING A BTK INHIBITOR” (Janssen Pharmaceutic NV, priority 2016, published 2019).
Read-outs that look alike come from different tables or passages of the source.

How the values were obtained:
OCI-Ly10 = experiment: Growth inhibition of OCI-Ly10 (ABC-DLBCL) cells; format: cell-based; details: Homo sapiens
Description: See U.S. Pat. No. 7,711,492 and Staudt et al., Nature, Vol. 463, Jan. 7, 2010, pp. 88-92, the contents of which are incorporated by reference in their entirety.

[1] = general statement, no test described; cited from earlier work

SMILES: C=CC(=O)N1CCC[C@@H](n2nc(-c3ccc(Oc4ccccc4)cc3)c3c(N)ncnc32)C1 [Compound 1, 1-((R)-3-(4-amino-3-(4-phenoxyphenyl)-1H-pyrazolo[3,4-d]pyrimidin-1-yl)piperidin-1-yl)prop-2-en-1-one]
- EC50 (OCI-Ly10; continuous exposure, read-out: EC50 continuous exposure (growth of OCI-Ly10)): 10 nM
- EC50 (OCI-Ly10; read-out: EC50 1 hour pulse (growth of OCI-Ly10), 1 hour pulse): 50 nM
- Water solubility [1]: very low water solubility
